Assay results taken from EP3272330A1, “COMPOSITION AND COSMETIC METHOD FOR REDUCING CELLULITE BLEMISHES” (Italfarmacia S.r.l., priority 2016, dated 2018).

Key:
[1] = hydrophilic/lipophilic ratio; cited from earlier work
[2] = also printed as 0.0176% to 0.176%; Sakagami H. et al. 1996; cited from earlier work
adipocytes = settings: concentration of 0.06% (3.3 mM); Gao Yan et al. 2009; cited from earlier work
adipose tissue = experiment: Clinical study: histological analysis of adipose tissue after subcutaneous injection into areas with localized cellulite; type: in vivo, patient; settings: surfactant added to ascorbate composition
Description: Step (c) Ten ml of diluents solution were used to reconstitute the mixture of sodium ascorbate and sodium chloride. Cosmetic Treatment: 5 ml of reconstituted solutions were given by subcutaneous injection into local areas with localized cellulite; lipolytic effect, adverse reactions and necrosis were evaluated by histological analysis.
The cosmetic treatment using the composition according to the invention was administered to a group of subjects who were well informed of the procedure; all gave their consent to the use of the results of the study for obtaining a patent grant. […]
A more specific and in-depth observation of the lower limbs was first made to assess, visually, the presence, location and extent of the irregularities of skin surface typical of cellulite. […] By photographic, thermographic and ultrasound instrumental investigations, the condition of each subject have been determined and classified according to a cellulite evaluation scale, ad hoc elaborated for the present study: • grade 0: exempt subjects; • grade 1: local skin rupture, characterized by few presence of irregular skin surface (madras skin or mattres phenomenon) with pit shaped introflexions; • grade 2: generalized skin rupture (skin roughness or orange peel skin). […]

| Molecule | HLB [1] | concentration range to induce an apoptotic effect [2] [mM] | apoptotic damage and adipocytes decrease (adipocytes) | ability of surfactants to determine the improvement of the lipolytic action of ascorbic acid salt (adipose tissue) |
| --- | --- | --- | --- | --- |
| Polysorbate 80 | HLB: 10-12 |  |  |  |
| O=C1O[C@H]([C@@H](O)CO)C(O)=C1O [ascorbic acid] |  | 1 to 10 | ineffective |  |
| CCCCCCCC/C=C\CCCCCCCC(=O)OCC(O)CO (stereo not drawn) [Glyceryl monooleate] | HLB: 2-3 |  |  |  |
| CCCCCCCCCCCCCCCC(=O)OC[C@H](O)[C@H]1OC(=O)C(O)=C1O [Ascorbyl Palmitate, ascorbyl palmitate] | HLB: 4-5 |  |  | particularly effective |
